# Data reported in the NIST ThermoML archive (doi:10.1021/je800672r).
# ± gives the expanded uncertainty stated by the source.
# Test: wn = mass fraction of the nth substance listed
# Conditions: Liquid
smiles,measurement,setting,value
NCC(=O)[O-].[Na+] [sodium glycinate] + O,mass density,"298.15 K, w1 = 0.01",1011.96 ± 2.3 kg/m3
same,mass density,"298.15 K, w1 = 0.05",1015.92 ± 2.4 kg/m3
same,mass density,"298.15 K, w1 = 0.1",1034.52 ± 2.9 kg/m3
same,mass density,"298.15 K, w1 = 0.15",1055.6 ± 3.4 kg/m3
same,mass density,"298.15 K, w1 = 0.2",1083.52 ± 4.1 kg/m3
same,mass density,"298.15 K, w1 = 0.3",1130.4 ± 5.2 kg/m3
same,mass density,"313.15 K, w1 = 0.01",1002 ± 2 kg/m3
same,mass density,"313.15 K, w1 = 0.05",1010.56 ± 2.2 kg/m3
same,mass density,"313.15 K, w1 = 0.1",1029.68 ± 2.7 kg/m3
same,mass density,"313.15 K, w1 = 0.15",1048.32 ± 3.2 kg/m3
same,mass density,"313.15 K, w1 = 0.2",1076.44 ± 3.9 kg/m3
same,mass density,"313.15 K, w1 = 0.3",1118 ± 4.9 kg/m3
same,mass density,"323.15 K, w1 = 0.05",1005.12 ± 2.1 kg/m3
same,mass density,"323.15 K, w1 = 0.1",1022.56 ± 2.5 kg/m3
same,mass density,"323.15 K, w1 = 0.15",1042.92 ± 3.1 kg/m3
same,mass density,"323.15 K, w1 = 0.2",1071 ± 3.8 kg/m3
same,mass density,"323.15 K, w1 = 0.3",1112.76 ± 4.8 kg/m3
same,mass density,"333.15 K, w1 = 0.01",996.72 ± 2.1 kg/m3
same,mass density,"333.15 K, w1 = 0.05",1000.12 ± 2 kg/m3
same,mass density,"333.15 K, w1 = 0.1",1017.56 ± 2.4 kg/m3
same,mass density,"333.15 K, w1 = 0.15",1036.72 ± 2.9 kg/m3
same,mass density,"333.15 K, w1 = 0.2",1066.48 ± 3.6 kg/m3
same,mass density,"333.15 K, w1 = 0.3",1107.48 ± 4.7 kg/m3
same,mass density,"343.15 K, w1 = 0.01",990.16 ± 2.2 kg/m3
same,mass density,"343.15 K, w1 = 0.05",993.24 ± 2.2 kg/m3
same,mass density,"343.15 K, w1 = 0.1",1010.76 ± 2.3 kg/m3
same,mass density,"343.15 K, w1 = 0.15",1030.08 ± 2.8 kg/m3
same,mass density,"343.15 K, w1 = 0.2",1061.2 ± 3.5 kg/m3
same,mass density,"343.15 K, w1 = 0.3",1101.44 ± 4.5 kg/m3
same,mass density,"353.15 K, w1 = 0.01",985.36 ± 2.4 kg/m3
same,mass density,"353.15 K, w1 = 0.05",987.2 ± 2.3 kg/m3
same,mass density,"353.15 K, w1 = 0.1",1005.32 ± 2.1 kg/m3
same,mass density,"353.15 K, w1 = 0.15",1023.64 ± 2.6 kg/m3
same,mass density,"353.15 K, w1 = 0.2",1054.48 ± 3.4 kg/m3
same,mass density,"353.15 K, w1 = 0.3",1094.52 ± 4.4 kg/m3
